Laboratory results as given in US12485110B2, “Use of ergothioneine for extending lifespan or improving healthspan” (NANJING NUTRABUILDING BIO-TECH CO., LTD., priority 2022, dated 2025).

Experiments:
Format in all cases: in vivo
[1] = test system: C. elegans; assay: Growth and development (growth and toxicity) assay
Excerpt: C. elegans was used in this study because it has advantages including having all the physiological properties of an animal, the ability to replicate human diseases, and a fast life cycle. The body of C. elegans is encased in a selectively permeable cuticle that only permits some compounds to be absorbed efficiently through the skin, so the most reliable mechanism for delivering compounds to the worms is through ingestion. Water-soluble compounds permeate the media and food and are readily taken up by the worms.
(§1) Making culturing plates with ergothioneine: C. elegans is usually grown in the laboratory using E. coli as a food source. Nematode Growth Medium (NGM) plates have been prepared by aseptically pouring NGM agar into petri plates. Ergothioneine was dissolved in water to make a working solution of 0.5 M and then mixed with E. coli liquid culture before seeding on NGM agar plates. The seeding spots were dried slowly, allowing ergothioneine to diffuse into the food bacteria and the agar for at least 24 hours before worms are introduced. The indicated ergothioneine dosages (0, 640 nM, 3.2 μM, 16 μM, 80 μM, 400 μM, 2 mM, and 10 mM) are based on the total volume of the plates.
High-resolution imaging and automated detection were used to precisely measure the growth rate of C. elegans worms from hatching to the first day of adulthood (total of 4 days). The C. elegans growth and development assay is highly sensitive and widely used in toxicology studies. Performing this test over a range of doses helps to identify a set of doses that have a physiological impact and exclude dose ranges that are likely too toxic to benefit lifespan.

[2] = test system: C. elegans; assay: Acute toxicity assay
Protocol: as §1
The acute toxicity assay tests toxicity in adult worms by simulating the actual conditions of the lifespan assay. […] Second, over time worm deaths are scored to rule out doses that will likely have a negative impact on lifespan despite lacking immediate toxicity. […] Adult worms were monitored in the days immediately following exposure for early lethality or any other obvious defects.
Worms were treated with either vehicle control or ergothioneine at doses spanning a range from […] to 10 mM on media identical to what would be used in the lifespan experiment. […] Worms were examined for immediate toxic effects and then scored intermittently for survival until the start of lifespan experiment in the next step (see example 2 below). […]

[3] = test system: C. elegans; assay: Longevity-focused pathway analysis of differentially expressed genes
Excerpt: This example describes identification of cellular pathways that are most likely modulated by treatment with Ergothioneine. To accomplish this, the genes differentially expressed after Ergothioneine treatment were first mapped to core established longevity pathways from the literature. Then the mapping was expanded to intersecting and supporting pathways. This placed the transcriptomic data within the context of well-characterized biological pathways, particularly several related to longevity.
Differentially expressed genes (DEGs) were mapped to known physiological pathways and then examined for coherent linkages between pathways related to longevity. These pathways were drawn from WormBase, KEGG, and other published databases and literature. For each condition, the DEGs were filtered on a more relaxed P value cutoff than the initial differential gene expression to capture broad evidence for a pathway from many small changes as opposed to highly significant individual genes of interest. For visualization, pathway genes were given a score based on the fold change weighted by the log of the P value, and this score was color mapped by magnitude and direction to produce the pathway diagram in FIG. 11.
FIG. 11 is a summary of pathway mapping to recognized aging-related pathways for Ergothioneine treatment. Colored score increments indicate degree of up-(red) or down-(blue) regulation weighted by the log of the P value such that each increment approximates one inverse log of P value. Uncolored objects indicate components that were not detected in the data. Top red indicates P value<0.0001 and so on. Solid lines indicate direct pathway connections and dashed lines indicate indirect or multi-step connections. Where lists of differentially expressed genes have been condensed into a module, the number of genes is indicated.
Starting with the canonical longevity pathways, the intersections with supporting pathways was then examined to expand the pool of evidence of whether a pathway is impacted by the treatment.

[4] = Ergothioneine treatment, pathway mapping FIG. 11

SMILES: C[N+](C)(C)[C@@H](Cc1c[nH]c(=S)[nH]1)C(=O)[O-] [Ergo, Ergothioneine]
- Number and size of worms (FIG. 1) ([1]; 16 μM and 400 μM, L4 and day 1 adult): comparable number and size
- Number of worms (FIG. 1) ([1]; 10 mM, L4 and day 1 adult stages): less worms
- Size of young adults (FIG. 2) ([1]; 10 mM, day 1 adult stage): smaller than normal
- Growth rate (worm size, FIG. 2) ([1]; concentrations up to 2 mM, day 1 adult stage): largely unaffected
- Growth rate (worm size, FIG. 2) ([1]; concentrations up to 10 mM, L4 stage): largely unaffected
- Early lethality (FIG. 3) ([2]; 2 mM, upper end of the remaining doses): did not cause early lethality
- Early lethality (FIG. 3) ([2]; 10 mM, day 10 post treatment, L4 stage worms, 25° C.): showed an early lethality
- superoxide dismutase (SOD-2) expression ([3]; Ergo treatment): slightly decreased expression
- cpr-1 expression ([3]; Ergothioneine treatment, autophagy): significantly downregulated
- daf-2 expression [3, 4]: slightly downregulated
- daf-16 expression [3, 4]: slight downregulation
- ife-2 (eIF4E) expression [3, 4]: downregulated
- mtl-1 expression [3, 4]: strongly downregulated
- skn-1 expression ([3]; Ergothioneine treatment, stress response): slight downregulation
